# pIC50: −log10 of the molar value. Residues, ends and D or L forms follow the SMILES beside them.
# How the values were obtained:
# Dipeptidyl peptidase 4 = Dipeptidyl peptidase 4 (Homo sapiens, UniProt P27487); experiment: Inhibition of recombinant human DPP4 using H-Gly-Pro conjugated amino methyl coumarin as substrate by fluorometric assay
# [1] = molecular target: T1, Angiotensin-converting enzyme (Sus scrofa, UniProt F1RRW5); experiment: (§1) Inhibition of porcine angiotensin converting enzyme assessed as release of hippuric acid using hippuryl-histidyl-leucine as substrate measured after 30 mins by spectrophotometry analysis
# T1 sequence (F1RRW5 whole entry): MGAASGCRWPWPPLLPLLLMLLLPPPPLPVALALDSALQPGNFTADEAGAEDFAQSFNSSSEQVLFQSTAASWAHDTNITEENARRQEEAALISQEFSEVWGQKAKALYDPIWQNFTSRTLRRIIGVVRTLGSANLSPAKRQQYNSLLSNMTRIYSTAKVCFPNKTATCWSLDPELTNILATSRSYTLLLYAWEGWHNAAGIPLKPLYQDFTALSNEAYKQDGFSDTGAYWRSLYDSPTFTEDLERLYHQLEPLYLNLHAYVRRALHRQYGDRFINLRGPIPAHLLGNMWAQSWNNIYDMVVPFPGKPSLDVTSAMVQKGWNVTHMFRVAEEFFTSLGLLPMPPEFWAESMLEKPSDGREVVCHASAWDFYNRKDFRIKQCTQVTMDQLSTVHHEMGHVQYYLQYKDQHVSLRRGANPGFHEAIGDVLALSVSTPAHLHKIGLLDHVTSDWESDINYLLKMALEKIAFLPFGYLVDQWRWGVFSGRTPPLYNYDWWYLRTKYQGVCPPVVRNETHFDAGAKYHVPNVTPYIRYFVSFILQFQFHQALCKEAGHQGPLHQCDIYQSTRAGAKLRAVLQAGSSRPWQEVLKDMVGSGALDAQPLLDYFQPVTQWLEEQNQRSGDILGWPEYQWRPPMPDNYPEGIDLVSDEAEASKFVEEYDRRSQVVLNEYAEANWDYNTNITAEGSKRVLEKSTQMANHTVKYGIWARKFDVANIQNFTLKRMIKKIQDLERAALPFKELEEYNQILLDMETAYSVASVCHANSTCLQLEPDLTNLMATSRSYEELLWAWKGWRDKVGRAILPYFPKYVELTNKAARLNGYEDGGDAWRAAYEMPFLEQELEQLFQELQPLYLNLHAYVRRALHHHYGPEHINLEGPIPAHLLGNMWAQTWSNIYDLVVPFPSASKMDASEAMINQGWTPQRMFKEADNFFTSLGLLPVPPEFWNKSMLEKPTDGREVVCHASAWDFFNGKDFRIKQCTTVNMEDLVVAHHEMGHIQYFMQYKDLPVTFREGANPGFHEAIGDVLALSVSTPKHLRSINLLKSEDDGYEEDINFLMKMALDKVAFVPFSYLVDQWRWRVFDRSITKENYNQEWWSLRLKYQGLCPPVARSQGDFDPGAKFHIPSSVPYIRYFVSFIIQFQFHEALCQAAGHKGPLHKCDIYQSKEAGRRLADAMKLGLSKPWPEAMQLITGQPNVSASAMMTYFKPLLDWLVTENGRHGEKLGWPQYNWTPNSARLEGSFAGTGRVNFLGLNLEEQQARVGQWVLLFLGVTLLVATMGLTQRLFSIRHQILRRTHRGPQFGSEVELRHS
# [2] = molecular target: T2, Angiotensin-converting enzyme (Sus scrofa) (UniProt F1RRW5); experiment: as §1
# T2 sequence (whole entry): T1 sequence (F1RRW5 whole entry)
# Dipeptidyl peptidase 4, sequence (P27487 whole entry): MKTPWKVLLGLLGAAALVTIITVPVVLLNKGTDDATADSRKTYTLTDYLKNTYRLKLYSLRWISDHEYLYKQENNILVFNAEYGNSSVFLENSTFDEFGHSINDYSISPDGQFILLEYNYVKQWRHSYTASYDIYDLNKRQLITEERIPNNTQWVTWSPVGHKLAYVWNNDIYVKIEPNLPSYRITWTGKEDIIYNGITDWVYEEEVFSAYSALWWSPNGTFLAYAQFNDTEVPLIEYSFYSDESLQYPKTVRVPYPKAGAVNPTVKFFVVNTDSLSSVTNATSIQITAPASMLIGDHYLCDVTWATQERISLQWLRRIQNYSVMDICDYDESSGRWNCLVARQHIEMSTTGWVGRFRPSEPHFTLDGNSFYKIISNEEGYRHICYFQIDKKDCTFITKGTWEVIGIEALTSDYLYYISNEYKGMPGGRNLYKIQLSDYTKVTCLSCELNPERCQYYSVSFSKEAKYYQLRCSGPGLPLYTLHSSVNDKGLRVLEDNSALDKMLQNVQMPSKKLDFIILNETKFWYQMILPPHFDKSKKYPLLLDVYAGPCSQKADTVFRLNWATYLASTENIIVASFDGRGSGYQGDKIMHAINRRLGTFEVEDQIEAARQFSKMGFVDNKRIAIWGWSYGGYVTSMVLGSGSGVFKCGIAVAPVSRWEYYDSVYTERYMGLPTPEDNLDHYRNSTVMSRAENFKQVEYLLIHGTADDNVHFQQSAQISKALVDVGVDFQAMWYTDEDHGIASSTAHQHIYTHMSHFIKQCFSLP
SMILES,pIC50 (Dipeptidyl peptidase 4),pIC50 [1],inhibition [2]
CC[C@H](C)[C@H](NC(=O)[C@H](CC(C)C)NC(=O)[C@@H]1CCCN1C(=O)[C@H](CC(C)C)NC(=O)[C@@H]1CCCN1C(=O)[C@@H](NC(=O)CN)[C@@H](C)CC)C(=O)O (H-GIPLPLI-OH),2.42,4.13,Dose-dependent effect
CC[C@H](C)[C@H](N)C(=O)N[C@@H](CCC(N)=O)C(=O)N[C@@H](CCCCN)C(=O)N[C@H](C(=O)N[C@@H](C)C(=O)NCC(=O)N[C@H](C(=O)N[C@@H](Cc1c[nH]c2ccccc12)C(=O)O)[C@@H](C)O)C(C)C (H-IQKVAGTW-OH),,3.52,

# — ChEMBL document CHEMBL4364304, “Discovery, synthesis, and in vitro evaluation of a novel bioactive peptide for ACE and DPP-IV inhibitory activity” (Eur J Med Chem, 2019)
